Experimental data taken from US9902733B2, “Furopyridines as inhibitors of protein kinases” (MASARYKOVA UNIVERZITA, priority 2014, dated 2018).
Read-outs that look alike come from different tables or passages of the source.

What was measured:
Type in all cases: biochemical
CLK2 (h) = biological target: T1, CLK2 (h) (Homo sapiens, UniProt P49760); assay: CLK2 KinaseProfiler radiometric protein kinase assay
T1 construct: purchased Merck Millipore (KinaseProfiler service)
Method: (§1) In vitro essays were performed by the company Merck Millipore in their KinaseProfiler radiometric protein kinase assay as paid commercial service. The compounds IC50 values for inhibition of individual protein kinases were determined. Dose-response curves were plotted from inhibition data generated, each in duplicate, from 10 point serial dilutions of inhibitory compounds. Concentration of compound was plotted against % kinase activity. To generate IC50 values, the dose-response curves were fitted to a standard sigmoidal curve and IC50 values were derived by standard nonlinear regression analysis.
(§2) All tested compounds were prepared in 100% DMSO to final assay concentrations either 0.5 mM (for the concentration row A, see below) or 0.05 mM (for the concentration row B). This working stock of the compound was added to the assay well as the first component in the reaction, followed by the remaining components as detailed below. The stock solution was added to the individual assay wells in such amounts that the concentrations of the compound were either in the row A (0.001 μM, 0.003 μM, 0.01 μM, 0.03 μM, 0.1 μM, 0.3 μM, 1.0 μM, 3.0 μM, and 10.0 μM) or in the row B (0.0001 μM, 0.0003 μM, 0.001 μM, 0.003 μM, 0.01 μM, 0.03 μM, 0.1 μM, 0.3 μM, and 1.0 μM). There was no pre-incubation step between the compound and the kinase prior to initiation of the reaction.
(§3) The positive control wells contained all components of the reaction, except the compound of interest; however, DMSO (at a final concentration of 2%) was included in these wells to control for solvent effects. The blank wells contained all components of the reaction, with staurosporine as a reference inhibitor replacing the compound of interest. This abolished kinase activity and established the base-line (0% kinase activity remaining).
CLK2 (h) was diluted in the buffer (20 mM MOPS (3-(N-morpholino)propanesulfonic acid), 1 mM EDTA (ethylendiaminotetraacetic acid), 0.01% Brij-35 (detergent), 5% Glycerol, 0.1% β-mercaptoethanol, 1 mg/mL BSAs) to the concentration of 1.01 mg/mL prior to addition to the reaction mix.
(§4) The above stock solution of CLK2(h) was added to a mixture containing 8 mM MOPS pH 7.0, 0.2 mM EDTA, and 20 μM […](p) EDEEE in such amount that the resulting concentration of CLK2(h) was 2.1 nM. This mixture was added to the stock solution of the tested compound. The reaction was initiated by the addition of the MgATP mix in such amount that the resulting concentration of Mg acetate in the reaction mixture was 10 mM and [γ-^33P-ATP] (specific activity approx. 500 cpm/pmol) was 15 μM. After incubation for 40 minutes at room temperature, the reaction was stopped by the addition of 3% phosphoric acid solution. 10 μL of the reaction was then spotted onto a P30 filtermat and washed three times for 5 minutes in 75 mM phosphoric acid and once in methanol prior to drying and scintillation counting.

CLK4 (h) = biological target: T2, CLK4 (h) (Homo sapiens, UniProt Q9HAZ1); assay: CLK4 KinaseProfiler radiometric protein kinase assay; details: 15 μM ATP, 40 minutes at room temperature
T2 construct: purchased Merck Millipore (KinaseProfiler service)
Method: as §1, §2, §3
CLK4 (h) was diluted in the buffer (20 mM MOPS, 1 mM EDTA, 0.01% Brij-35, 5% Glycerol, 0.1% β-mercaptoethanol, 1 mg/mL BSAs) to the concentration of 1.01 mg/mL prior to addition to the reaction mix.
as §4, with “CLK4(h)” for “CLK2(h)”, “200” for “20”, “140.8” for “2.1”

HIPK1(h) = biological target: T3, HIPK1(h) (Homo sapiens, UniProt Q86Z02); assay: HIPK1 KinaseProfiler radiometric protein kinase assay; details: 45 μM ATP, 40 minutes at room temperature
T3 construct: purchased Merck Millipore (KinaseProfiler service)
Method: as §1, §2, §3
HIPK1(h) was diluted in the buffer (20 mM MOPS, 1 mM EDTA, 0.01% Brij-35, 5% Glycerol, 0.1% β-mercaptoethanol, 1 mg/mL BSAs) to the concentration of 1.01 mg/mL prior to addition to the reaction mix.
(§5) The above stock solution of HIPK1(h) was added to a mixture containing 8 mM MOPS pH 7.0, 0.2 mM EDTA, and 0.33 mg/mL myelin basic protein in such amount that the resulting concentration of HIPK1(h) was 4.7 nM. This mixture was added to the stock solution of the tested compound. The reaction was initiated by the addition of the MgATP mix in such amount that the resulting concentration of Mg acetate in the reaction mixture was 10 mM and [γ-^33P-ATP] (specific activity approx. 500 cpm/pmol) was 45 μM. After incubation for 40 minutes at room temperature, the reaction was stopped by the addition of 3% phosphoric acid solution. 10 μL of the reaction was then spotted onto a P30 filtermat and washed three times for 5 minutes in 75 mM phosphoric acid and once in methanol prior to drying and scintillation counting.

HIPK2(h) = biological target: T4, HIPK2(h) (Homo sapiens, UniProt Q9H2X6); assay: HIPK2 KinaseProfiler radiometric protein kinase assay; details: 10 μM ATP, 40 minutes at room temperature
T4 construct: purchased Merck Millipore (KinaseProfiler service)
Method: as §1, §2, §3
HIPK2(h) was diluted in the buffer (20 mM MOPS, 1 mM EDTA, 0.01% Brij-35, 5% Glycerol, 0.1% β-mercaptoethanol, 1 mg/mL BSAs) to the concentration of 1.01 mg/mL prior to addition to the reaction mix.
as §5, with “HIPK2(h)” for “HIPK1(h)”, “1.4” for “4.7”, “10” for “45”

DYRK2 = biological target: T5, DYRK2 (Homo sapiens, UniProt Q92630); assay: DYRK2 KinaseProfiler radiometric protein kinase assay
T5 construct: purchased Merck Millipore (KinaseProfiler service)
T5 sequence (Q92630 1-601): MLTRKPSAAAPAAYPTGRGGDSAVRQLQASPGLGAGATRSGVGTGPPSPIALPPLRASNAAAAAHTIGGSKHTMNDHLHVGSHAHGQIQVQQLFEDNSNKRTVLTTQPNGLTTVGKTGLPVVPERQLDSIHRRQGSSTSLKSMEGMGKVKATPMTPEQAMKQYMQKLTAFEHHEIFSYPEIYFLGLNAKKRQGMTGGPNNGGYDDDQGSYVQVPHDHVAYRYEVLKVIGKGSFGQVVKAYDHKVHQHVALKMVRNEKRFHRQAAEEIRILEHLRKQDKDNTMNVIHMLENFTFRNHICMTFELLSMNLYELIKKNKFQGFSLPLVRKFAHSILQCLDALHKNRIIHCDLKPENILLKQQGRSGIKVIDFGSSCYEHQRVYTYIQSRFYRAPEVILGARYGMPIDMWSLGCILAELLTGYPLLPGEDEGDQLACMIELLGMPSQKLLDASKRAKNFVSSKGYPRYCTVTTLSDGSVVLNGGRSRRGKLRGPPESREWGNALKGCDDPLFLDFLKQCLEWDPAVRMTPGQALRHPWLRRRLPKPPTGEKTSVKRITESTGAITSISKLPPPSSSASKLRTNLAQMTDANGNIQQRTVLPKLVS
Method: as §1, §2, §3

[1] = radiometric, 15 μM ATP, 40 minutes at room temperature, read-out: CLK2 IC50

T2 sequence (Q9HAZ1 whole entry): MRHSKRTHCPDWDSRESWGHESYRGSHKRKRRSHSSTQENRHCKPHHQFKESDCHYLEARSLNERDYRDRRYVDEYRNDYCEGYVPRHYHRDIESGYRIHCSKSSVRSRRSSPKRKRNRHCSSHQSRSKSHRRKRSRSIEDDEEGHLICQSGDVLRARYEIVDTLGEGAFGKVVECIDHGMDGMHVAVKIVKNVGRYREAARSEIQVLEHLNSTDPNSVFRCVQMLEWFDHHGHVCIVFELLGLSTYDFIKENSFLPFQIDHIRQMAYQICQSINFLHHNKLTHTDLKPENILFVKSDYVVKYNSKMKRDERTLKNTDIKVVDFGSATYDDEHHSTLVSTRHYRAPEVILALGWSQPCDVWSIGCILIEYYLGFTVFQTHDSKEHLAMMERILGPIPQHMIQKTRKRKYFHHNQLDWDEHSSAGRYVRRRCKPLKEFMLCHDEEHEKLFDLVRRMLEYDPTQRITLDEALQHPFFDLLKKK
T3 sequence (Q86Z02 whole entry): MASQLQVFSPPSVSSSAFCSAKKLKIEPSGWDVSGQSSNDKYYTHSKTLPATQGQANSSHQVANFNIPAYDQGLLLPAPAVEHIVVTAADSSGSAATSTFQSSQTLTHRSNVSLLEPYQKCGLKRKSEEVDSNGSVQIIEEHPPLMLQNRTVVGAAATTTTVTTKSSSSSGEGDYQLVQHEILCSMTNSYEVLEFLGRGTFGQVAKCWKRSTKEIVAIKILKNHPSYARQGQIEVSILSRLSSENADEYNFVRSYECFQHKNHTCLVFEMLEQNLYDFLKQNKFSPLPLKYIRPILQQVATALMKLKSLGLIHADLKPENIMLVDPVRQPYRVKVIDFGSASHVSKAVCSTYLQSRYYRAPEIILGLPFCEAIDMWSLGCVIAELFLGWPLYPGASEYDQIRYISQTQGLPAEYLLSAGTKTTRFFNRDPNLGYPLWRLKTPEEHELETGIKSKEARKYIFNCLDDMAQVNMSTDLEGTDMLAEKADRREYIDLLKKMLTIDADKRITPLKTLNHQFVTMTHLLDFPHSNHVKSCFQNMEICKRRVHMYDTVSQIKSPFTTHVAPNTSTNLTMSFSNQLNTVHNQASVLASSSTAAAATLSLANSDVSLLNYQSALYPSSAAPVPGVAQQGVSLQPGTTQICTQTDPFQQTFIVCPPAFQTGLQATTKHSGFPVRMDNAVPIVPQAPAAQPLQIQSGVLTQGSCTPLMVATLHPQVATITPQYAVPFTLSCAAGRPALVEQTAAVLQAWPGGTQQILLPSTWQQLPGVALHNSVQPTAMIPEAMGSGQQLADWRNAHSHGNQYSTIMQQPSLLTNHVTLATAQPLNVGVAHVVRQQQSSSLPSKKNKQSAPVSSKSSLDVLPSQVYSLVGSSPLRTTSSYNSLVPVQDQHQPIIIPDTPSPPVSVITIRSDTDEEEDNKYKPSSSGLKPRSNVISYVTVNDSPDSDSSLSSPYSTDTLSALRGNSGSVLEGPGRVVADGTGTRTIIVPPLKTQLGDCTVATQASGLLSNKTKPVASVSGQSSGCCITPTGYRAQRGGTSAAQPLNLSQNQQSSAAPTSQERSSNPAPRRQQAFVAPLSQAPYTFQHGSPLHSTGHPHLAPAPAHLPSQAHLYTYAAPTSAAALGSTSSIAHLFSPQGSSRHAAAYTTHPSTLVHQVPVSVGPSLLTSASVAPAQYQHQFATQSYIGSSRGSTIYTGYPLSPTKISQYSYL
T1 sequence (P49760 whole entry): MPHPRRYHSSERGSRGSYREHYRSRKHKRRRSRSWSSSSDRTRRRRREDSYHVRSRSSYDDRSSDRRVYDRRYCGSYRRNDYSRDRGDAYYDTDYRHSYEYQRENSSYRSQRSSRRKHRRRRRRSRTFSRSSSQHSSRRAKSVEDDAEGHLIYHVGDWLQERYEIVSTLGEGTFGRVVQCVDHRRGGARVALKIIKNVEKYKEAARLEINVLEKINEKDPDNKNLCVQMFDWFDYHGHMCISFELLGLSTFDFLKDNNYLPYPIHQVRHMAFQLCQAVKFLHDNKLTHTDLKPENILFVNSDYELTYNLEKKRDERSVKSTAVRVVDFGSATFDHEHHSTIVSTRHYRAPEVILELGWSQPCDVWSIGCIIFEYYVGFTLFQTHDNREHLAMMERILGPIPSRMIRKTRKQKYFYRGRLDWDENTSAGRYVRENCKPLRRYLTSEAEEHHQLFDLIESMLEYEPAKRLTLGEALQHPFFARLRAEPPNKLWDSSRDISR
T4 sequence (Q9H2X6 whole entry): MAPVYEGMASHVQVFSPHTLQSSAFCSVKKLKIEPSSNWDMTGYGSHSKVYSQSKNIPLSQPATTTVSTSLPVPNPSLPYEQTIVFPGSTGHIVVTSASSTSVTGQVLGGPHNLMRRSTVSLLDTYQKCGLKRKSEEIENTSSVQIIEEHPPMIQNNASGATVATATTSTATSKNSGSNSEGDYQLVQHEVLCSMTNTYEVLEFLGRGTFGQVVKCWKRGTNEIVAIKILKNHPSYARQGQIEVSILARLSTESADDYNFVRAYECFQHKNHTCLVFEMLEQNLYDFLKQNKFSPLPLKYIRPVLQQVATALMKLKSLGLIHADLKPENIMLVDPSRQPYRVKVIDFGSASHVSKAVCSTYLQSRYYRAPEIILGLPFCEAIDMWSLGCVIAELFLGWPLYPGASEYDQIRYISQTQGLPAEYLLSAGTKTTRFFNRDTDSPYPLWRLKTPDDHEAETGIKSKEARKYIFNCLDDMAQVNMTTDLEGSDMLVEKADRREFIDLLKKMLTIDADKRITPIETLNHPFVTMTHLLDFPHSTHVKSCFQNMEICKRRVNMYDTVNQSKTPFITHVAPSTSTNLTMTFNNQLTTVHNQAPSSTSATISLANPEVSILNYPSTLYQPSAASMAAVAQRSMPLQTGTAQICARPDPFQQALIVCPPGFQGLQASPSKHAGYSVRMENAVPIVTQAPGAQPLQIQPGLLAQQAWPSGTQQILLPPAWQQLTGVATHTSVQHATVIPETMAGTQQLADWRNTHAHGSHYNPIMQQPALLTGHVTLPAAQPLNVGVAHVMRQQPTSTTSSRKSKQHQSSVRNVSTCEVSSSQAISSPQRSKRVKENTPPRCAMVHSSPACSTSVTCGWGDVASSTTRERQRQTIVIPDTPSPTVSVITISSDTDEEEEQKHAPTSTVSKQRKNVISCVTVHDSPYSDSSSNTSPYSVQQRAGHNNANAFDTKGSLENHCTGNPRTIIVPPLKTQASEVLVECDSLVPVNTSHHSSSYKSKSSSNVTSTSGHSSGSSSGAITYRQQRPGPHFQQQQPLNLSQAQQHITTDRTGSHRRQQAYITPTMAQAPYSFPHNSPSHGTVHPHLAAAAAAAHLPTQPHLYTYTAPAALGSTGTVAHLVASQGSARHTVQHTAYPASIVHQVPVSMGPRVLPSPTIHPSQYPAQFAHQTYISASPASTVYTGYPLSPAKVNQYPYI

SMILES	IC50 (CLK2 (h); [1])	IC50 (CLK4 (h))	IC50 (HIPK1(h))	IC50 (HIPK2(h))	IC50 (DYRK2)	IC50 (CLK2 (h))
c1ccc(-c2coc3ccc(-c4cccnc4)nc23)cc1 [Preparative Example 6D]	< 5000 nM	< 1000 nM	< 5000 nM	< 5000 nM		
CC(C)n1cc(-c2ccc3occ(-c4ccc5ccccc5c4)c3n2)cn1 [Preparative Example 7C]	< 5000 nM	< 5000 nM		< 5000 nM		
c1ccc2cc(-c3coc4ccc(-c5cncs5)nc34)ccc2c1 [Preparative Example 7F]	< 1000 nM	< 1000 nM	< 1000 nM	< 100 nM		
Cn1cc(-c2ccc3occc3n2)cn1 [Preparative Example 12B]	< 5000 nM	< 1000 nM				
CCc1coc2ccc(-c3cnn(C)c3)nc12 [Preparative Example 23]	< 1000 nM	< 1000 nM			< 5000 nM	
CC(C)(C)c1ccc(-c2coc3ccc(-c4cn[nH]c4)nc23)cc1 [Preparative Example 54]		< 5000 nM	< 1000 nM	< 1000 nM		< 5000 nM
CC(C)(C)c1coc2ccc(-c3cn[nH]c3)nc12 [Preparative Example 55]	< 1000 nM	< 1000 nM				
Cn1cc(-c2ccc3occ(-c4cccc(-c5ccccc5)c4)c3n2)cn1 [Preparative Example 61]	< 100 nM	< 100 nM	< 1000 nM	< 100 nM	< 5000 nM	
c1ccc2cc(-c3coc4ccc(-c5cnoc5)nc34)ccc2c1 [Preparative Example 62]	< 5000 nM	< 5000 nM	< 1000 nM	< 1000 nM		
Cn1cc(-c2ccc3occ(-c4ccc5cn[nH]c5c4)c3n2)cn1 [Preparative Example 65]	< 100 nM		< 1000 nM		< 1000 nM	
Cn1cc(-c2ccc3occ(-c4ccc(C(N)=O)cc4)c3n2)cn1 [Preparative Example 66]	< 1000 nM		< 1000 nM		< 5000 nM	
Cn1cc(-c2ccc3occ(-c4ccc(CO)cc4)c3n2)cn1 [Preparative Example 70]	< 1000 nM		< 1000 nM		< 5000 nM	
Cn1cc(-c2ccc3occ(-c4ccc(S(C)(=O)=O)cc4)c3n2)cn1 [Preparative Example 71]	< 1000 nM		< 5000 nM		< 5000 nM	
Cn1cc(-c2ccc3occ(-c4ccc([S+](C)[O-])cc4)c3n2)cn1 (stereo not drawn) [Preparative Example 73]	< 5000 nM				< 5000 nM	
Cn1cc(-c2ccc3occ(-c4cccc(C(C)(C)C)c4)c3n2)cn1 [Preparative Example 74]	< 1000 nM		< 5000 nM			
Cc1cc2occ(-c3ccc4ccccc4c3)c2nc1-c1cnn(C)c1 [Preparative Example 80]	< 1000 nM					
Cn1cc(-c2ccc3occ(-c4ccc(-c5nnn[nH]5)cc4)c3n2)cn1 [Preparative Example 81]	< 5000 nM		< 5000 nM		< 5000 nM	
